Measurements reported in patent US20150133341A1, “Intra-Operative Cancer Diagnosis Based on a Hyperpolarized Marker” (ALBEDA INNOVATIONS APS, priority 2012, published 2015).
Marks after values point to notes of the source that are not given here.

Tests used:
[1] = system: breast cancer cells (MDA-MB-231); assay: In cell 13C-NMR detection of 1,4-13C2-malate using 1,4-13C2-fumarate as hyperpolarized marker; type: cell-based, human; conditions: 5 million cells; 30 s; normalized to soluble protein; vs 184B5; FIG. 2
Protocol: Step 1: 1,4-^13C2 Fumaric acid (274 mg, 2.32 mmol) was dissolved in a DMSO solution (1660 μl) of trityl radical (Tris(8-carboxy-2,2,6,6-(tetra(methoxyethyl)-benzo-[1,2-4,5′]-bis-(1,3)-dithiole-4-yl)-methyl sodium salt) (19 mM) and gadolinium trimeric complex (Gadolinium chelate of 1,3,5-tris-(N-(DO3A-acetmido)-N-methyl-4-amino-2-methylphenyl)-[1,3,5]triazinane-2,4,6-trione)) (0.8 mM). A sample of this solution (32.5 mg) was hyperpolarized for 60 minutes, at 93.900 GHz and 1.3 K. The sample was dissolved in phosphate buffer (4 ml, pH 7.3, 40 mM) with addition of sodium hydroxide (22 μl, 12M) to neutralize the acid in the hyperpolarized sample.
Step 2: 100 μl of hyperpolarized sodium 1,4-^13C2-fumarate from step 1 was mixed into 500 μl RPMI medium containing 5 million breast cancer cells (MDA-MB-231, human epithelial breast cancer cell line) in a 5 mm NMR tube and placed in a 9.4 T NMR magnet. Signals of 1,4-^13C-malate were detected by acquiring a set of ^13C-MR spectra every 2 s with a 15 degree RF pulse. The amount of 1,4-^13C-malate was calculated 30 s after mixing the hyperpolarized sodium 1,4-^13C2-fumarate into the medium containing cells. Further, the amount of soluble protein in the MDA-MB-231 cells was determined, and the amount of 1,4-^13C-malate was normalized to the protein amount. […]

[2] = system: human prostate cancer cells (PC-3); assay: Metabolism of hyperpolarized substrates in intact human prostate cancer cells; type: cell-based; conditions: for Metabolic conversion (a.u.) PC-3 cells: 20 million cells, maximum signal of product 1-13C lactate
Protocol: (§1) Human breast cancer cells (MCF-7) and human prostate cancer cells (PC-3) were grown in RPMI medium with 10% FBS and antibiotics. The cells were at confluence harvested by trypsination and washed once with 5 ml PBS. They were spun down and re-dissolved to a concentration of 20 million cells in 500 μl 40 mM phosphate buffer pH 7.3.
(§2) The cell suspensions were transferred to a 10 mm NMR tube and placed with connecting tubing in a 14.1 T magnet at 37 C.
(§3) Finland radical, carboxylic acid form (1 mg, 0.65 μmol) was dissolved in 1,3-^13C2 ethyl acetoacetate (50 μl, 51 mg, […]). To the solution was added a DMSO solution of the gadolinium complex ([alfa1,alfa4,alfa7-tris[(phenylmethoxy)methyl]-1,4,7,10-tetraazacyclododecane-1,4,7,10-tetraacetato(4-)]gadolinate(1-)]hydrogen) (0.8 mg of a 100 μmol/g solution). The concentration of radical and gadolinium were 13 mM and 1.6 mM respectively. 20 μmol of this composition was hyperpolarised under DNP conditions at 1.2 K in a 3.35 T magnetic field under irradiation with microwave (93.900 GHz). The polarization build-up constant was 750 s. The solid-state polarization was approx. 20%.
(§4) The hyperpolarized sample was dissolved in 5 ml phosphate buffer (40 mM, pH 7.3). The pH after dissolution was 7.3. Following dissolution, 1 ml of the substrate mixture was injected into 20 million cells in suspension. A series of 20 degree pulses every 2 s (56 scans in total) was acquired. The acquisition was started just before injection of the hyperpolarized substrate. Data are presented metabolic signal build-up as a function of time and as maximum metabolite signal.
(§5) The cells were grown and harvested or purified as described in example 3.10. The experiments were performed with single substrates administered to 20 million MCF-7 cells, PC-3 cells or lymphocytes dissolved in a volume of 500 μl 40 mM phosphate buffer pH 7.3. The cell suspensions were transferred to a 10 mm NMR tube and placed with connecting tubing in a 14.1 T magnet at 37° C.
(§6) ^13C6-d7-glucose (22.8 mg, 0.118 mmol) was dissolved in polarization medium (25.0 mg). […]

human lymphocytes = assay: Metabolism of hyperpolarized substrates in intact human lymphocytes; type: cell-based; conditions: for Metabolic conversion (a.u.) Lymphocytes: 20 million cells, maximum signal of product 1-13C lactate
Protocol: Human lymphocytes were purified from whole blood. Whole blood samples were drawn from a healthy volunteer into heparinised venous blood collection tubes (Venosafe vacumtubes from Terumo). For each experiment the blood was purified freshly: Three and a half 10 mL tubes of blood were pooled in each of four 50 mL Leucosep (Greiner) tubes prepared with 15 mL Histopaque 1077 (Sigma). The Leucosep tubes were spun for 15 min at 800× g at 24 C. The plasma was removed and the white blood cells were transferred to a 50 mL falcon tube by decanting and diluted 1:2 in PBS-Mg—Ca for a total volume of 50 mL. The cells were sedimented by centrifugation at 250×g for 60 min. Diluting with trypan blue and counting in hemocytometer determined the total number of lymphocytes before sedimentation. All cells were viable and the total number of cells in each cell batch was approx. 60 million. The lymphocytes were redissolved to a concentration of 20 million cells in 500 μl 40 mM phosphate buffer pH 7.3.
as §2, §3, §4, §5, §6

[3] = system: human breast cancer cells (MCF-7); assay: Metabolism of hyperpolarized substrates in intact human breast cancer cells; type: cell-based; conditions: for Metabolic conversion (a.u.) MCF-7 cells: 20 million cells, maximum signal of product 1-13C lactate; for conversion in breast cancer cells over lymphocytes: quantified by cell number
Protocol: as §1, §2, §3, §4, §5
^13C6-d7-glucose (22.8 mg, 0.118 mmol) was dissolved in polarization medium (25.0 mg). The polarization medium was made of Ox063 radical (19.1 mg, 13.3 μmol) was dissolved in 465 μl water. To this solution was added Gadoteridol (40 mg of 50 μmol/g solution in water). Concentrations: [Ox063]=26.5 mM, [Gd]=4 mM. The total weight of the glucose preparation was: 47.8 mg yielding 2.47 mmol glucose/g preparation.
1-^13C pyruvic acid (55 μl, 70.0 mg) was mixed with Finland radical, sodium salt (1.5 mg, 0.94 μmol) and Gadoteridol (2.1 mg of 50 μmol/g solution in water). Concentrations of radical and Gadolinium were: 17 mM; 2 mM.
20 μmol of either substrate was polarized in a 3.3 T polarizer operating at […] and approx. 1.2 K. Following 45 minutes polarization the samples were dissolved in 5 ml 40 mM phosphate buffer pH 7.3. In the experiments with pyruvic acid an equimolar addition of NaOH was added to neutralize the acid. 2 ml of the dissolved substrate mixture was injected into the cells in suspension. A series of 20 degree pulses every 2 s (56 scans in total) was acquired. The acquisition was started just before injection of the hyperpolarized substrate. Data are presented as maximum metabolite signals, hyperpolarized 1-^13C lactate produced from either glucose or pyruvate.

[4] = system: breast cancer cells (MCF-7) in the background of human lymphocytes; assay: Co-polarized substrates in model voxels of breast cancer cells in lymphocyte background; type: cell-based; conditions: for Metabolic conversion (a.u) 50% cancer cells: 1 million MCF-7 cells and 20 million lymphocytes; for Metabolic conversion (a.u) 100% cancer cells: 2 million MCF-7 cells, 2x2x2 voxel model; for Metabolic conversion (a.u) 0% cancer cells: 40 million lymphocytes
Description: The real time metabolism of breast cancer cells was compared with the metabolism of the lymph node background in model systems containing either only cancer cells (100% cancer), only lymphocytes (0% cancer) or a combination of the two cell types (50% cancer) in cellular concentrations expected to be present in a spatially resolved lymph node containing a macro metastasis. In the clinic, the interest is focused on macro metastasis since these are statistically those, which indicate aggressive cancers (P. Blumencranz, Surg Oncol Clin N Am 20 (2011) 467-485).
The model system was designed assuming a macro metastasis, which is defined to have a minimum diameter of 2 mm (P J. Diest et al., (2010) Breast disease 31: 65-81). In a 2×2×2 mm voxel, 50% of the volume will be cancer cells assuming that the macro metastasis is shaped as a sphere. Three experimental systems were established and carried out: 1) 2 million MCF-7 cells (corresponding to 100% cancer cells in a 2×2×2 voxel), 2) 1 million MCF-7 cells and 20 million lymphocytes (corresponding to 50% cancer cells in a 2×2×2 voxel) and 3) 40 million lymphocytes (corresponding to 0% cancer cells in a 2×2×2 voxel). The cells were grown and harvested or purified as described in example 3.10. The DNP preparations of 1-^13C-pyruvate and 1,3-^13C2-ethyl acetoacetate were made as described in examples 3.10. and 3.11. The substrates (20 μmol each) were co-polarized. The polarization, dissolution and administration to the cells were made as in example 3.11.

[5] = system: prostate cancer cells (PC-3); assay: In cell 13C-NMR detection of 1-13C-lactate using 1-13C-pyruvate as hyperpolarized marker; type: cell-based, human; conditions: 5 million cells; PC-3 vs PNT-1A; FIG. 1
Protocol: Step 1: 1-^13C pyruvic acid (1286 mg, 14.4 mmol) was mixed with 25 mg of trityl radical (Tris(8-carboxy-2,2,6,6-(tetra(methoxyethyl)-benzo-[1,2-4,5′]-bis-(1,3)-dithiole-4-yl)-methyl sodium salt) (15 mM) and gadolinium trimeric complex (Gadolinium chelate of 1,3,5-tris-(N-(DO3A-acetmido)-N-methyl-4-amino-2-methylphenyl)-[1,3,5]triazinane-2,4,6-trione)) (0.6 mM). A sample of this solution (9.2 mg) was hyperpolarized for 60 minutes, at 93.900 GHz and 1.3 K. The sample was dissolved in phosphate buffer (4 ml, pH 7.3, 40 mM) with addition of sodium hydroxide (11 μl, 12M) to neutralize the acid in the hyperpolarized sample. The hyperpolarized solution was further diluted with tempered (37° C.) buffer to 30 ml.
Step 2: 500 μl of hyperpolarized sodium 1-^13C-pyruvate from step 1 was mixed into 5 million prostate cancer cells (PC-3, human prostate cell adenocarcinoma) in a 10 mm NMR tube and placed in a 9.4 T NMR magnet. Signals of 1-^13C-pyruvate and 1-^13C-lactate were detected by acquiring a set of ^13C-MR spectra every 3 s with a 15 degree RF pulse and the signal from 1-^13C-lactate was quantified.
Using an identical protocol as outlined above, a second study was performed in healthy prostate cells (PNT-1A, immortalized healthy prostate cells).

Structure (SMILES)	concentration of 1,4-13C-malate in MDA-MB-231 cells compared to healthy breast cells [1]	Metabolic conversion (a.u.) PC-3 cells [2] [a.u.]	Metabolic conversion (a.u.) Lymphocytes (human lymphocytes) [a.u.]	Metabolic conversion (a.u.) MCF-7 cells [3] [a.u.]	conversion in breast cancer cells over lymphocytes [3] [times]	hydrolysis to 1,3-13C2 acetoacetate ([2]; 20 million intact PC-3 cells, FIG. 4)	hydrolysis to 1,3-13C2 acetoacetate (human lymphocytes; 20 million intact lymphocytes, FIG. 4)	metabolic conversion, healthy lymphocytes over cancer cells (human lymphocytes; cancer cells quantified by limit-of-detection)	Metabolic conversion (a.u) 50% cancer cells [4] [a.u.]	Metabolic conversion (a.u) 100% cancer cells [4]	Metabolic conversion (a.u) 0% cancer cells [4] [a.u.]	hydrolysis to 1,3-13C2 acetoacetate ([3]; 20 million intact MCF-7 cells, FIG. 4)	1-13C-lactate signal in PC-3 cells compared to non-cancerous prostate cells [5]
O=[13C](O)/C=C/[13C](=O)O [1,4-^13C2-fumarate]	significantly higher	–	–	–	–	–	–	–	–	–	–	–	–
OC[C@H]1OC(O)[C@H](O)[C@@H](O)[C@@H]1O (some centres unmarked) [^13C6-d7-glucose]	–	200	10	500	50	–	–	–	–	–	–	–	–
CCO[13C](=O)C[13C](C)=O [1,3-^13C2 ethyl acetoacetate]	–	–	–	–	–	no conversion can be detected	hydrolysed	approx. 33 times	632	< 14* a.u.	1027	no conversion can be detected	–
CC(=O)[13C](=O)O [1-^13C-pyruvate]	–	200	40	1000	50	–	–	–	1853	337 a.u.	2620	–	increased
